US10947254B2, “Methods for treating ulcerative colitis using 3-((1R,3s,5S)-3-((7-((5-methyl-1H-pyrazol-3-yl)amino)-1,6-naphthyridin-5-yl)amino)-8-azabicyclo[3.2.1]octan-8-yl)propanenitrile” (priority 2015, dated 2021)

How the values were obtained:
[1] = Pharmacokinetics in plasma and the GI tract in rats; assay type: in vivo, Sprague Dawley rats; settings: oral dosing in preclinical species
Procedure: Assay 6: Pharmacokinetics in Plasma and the GI Tract in Rats and Dogs A test compound was dosed to male Sprague Dawley rats (n=3) as described in Assay 5. […] At all time points, the plasma concentration was below the limit of quantitation of 0.001 μg/mL.

[2] = tested on: oxazolone-induced colitis; assay: Mouse model of oxazolone-induced colitis; assay type: in vivo, BALB/C mice; settings: mice
Procedure: Assay 7: Mouse Model of Oxazalone-Induced Colitis
Oxazolone-induced colitis is an experimental model that has a histological resemblance to human ulcerative colitis (Heller et al. Immunology, 2002, 17, 629-638). Adult BALB/C mice from Harlan were used in the assay. On day 1, animals were lightly anesthetized with isoflurane and the hairs between the shoulder were carefully removed before oxazolone (4%, 150 μL, 4:1 acetone:olive oil formulation) or vehicle solution was slowly applied for skin sensitization. Seven days after skin sensitization, the mice were fasted overnight, anesthetized with isoflurane inhalation, and a 1 mL syringe equipped with a 3.5-F catheter, filled with oxazolone solution, was inserted carefully about 4 cm into the colon of the mouse. Following insertion, 50 μL of the oxazolone solution (1%, 1:1 ethanol:water formulation) was injected very slowly (over 30 sec using an injection pump) into the colon. The catheter was removed and the mice were held vertically (head down) for 2 min to ensure that the entire oxazolone solution remained inside the colon. Drug treatment (PO, BID or TID) or vehicle was initiated a day prior to the oxazolone intrarectal (IR) challenge. Two-day post oxazolone intrarectal challenge, the Disease Activity Index (DAI) was assessed by treatment-blinded experimenters for each mouse according to the criteria score: stool consistency score (0, normal; 2, loose; 4, diarrhea), gross bleeding score (0, absence; 2, blood tinged; 4, presence), and weight loss score (0, none; 1, 1%-5%; 2, 5%-10%; 3, 10%-20%; 4, more than 20%); DAI=average of (stool consistency score+gross bleeding score+weight loss score).
Selected compounds of the invention were tested in the assay. Efficacy in the model is evidenced by a decrease in DAI score as compared with the score from vehicle treated animals.

[3] = tested on: splenic NK, B and T cells; assay: Immunosuppression effects in mouse splenic natural killer (NK) cells; assay type: in vivo, Balb/C mice; settings: mice, three days
Procedure: Adult male Balb/C mice (12-14 weeks of age) from Harlan were used for the study. […] Spleens were harvested 1 or 2 h post last dose and crushed immediately for cell subtype staining. Prior to fixation, fluorophore-labelled antibodies for CD19 (FITC; B cells), CD3e (PE; pan T cells) and DX5 (APC; NK cells) were incubated with splenocyte samples from each animal to allow for simultaneous, multiple subtype % analysis on the flow cytometer. The number of total spleen cells for each animal was measured by Scepter™ 2.0 Handheld Automated Cell Counter. The absolute number of lymphocyte subtype population (e.g., splenic B, T and NK cells) was calculated from the percentage of each subtype times total spleen cells for each animal. A one way ANOVA, with Dunnett's post hoc test, was used to compare the splenic lymphocytes number of the vehicle and test compound groups. The a level was set at p<0.05. Data were presented as the mean±SEM for each group.

[4] = First in human study of safety, tolerability and pharmacokinetics in healthy subjects; assay type: in vivo; settings: by comparison to other orally administered compounds
Procedure: Assay 9: First in Human Study to Evaluate the Safety, Tolerability and Pharmacokinetics in Healthy Subjects
The compound of Example 1 was evaluated in a double-blinded, randomized, placebo-controlled, single ascending dose (SAD) and multiple ascending dose (MAD) study of safety, tolerability, and pharmacokinetics in healthy subjects. Pharmacokinetic samples were collected up to 72 hours post the final dose in both the SAD study (after the first dose) and MAD study (after 14 days of once-daily dosing). The SAD study enrolled 5 cohorts and the MAD study enrolled 4 cohorts totaling 72 subjects, of which 71 completed the dosing period.
Plasma pharmacokinetic (PK) parameters were determined by non-compartmental analysis using WinNonLin Version 6.4.0 (Pharsight, St Louis, Mo.). The plasma PK parameter presented here is:
Cmax: Maximum Concentration in Plasma

[5] = molecular target: JAK1 (Homo sapiens (Human), UniProt P23458); assay type: biochemical
JAK1, sequence (P23458 whole entry): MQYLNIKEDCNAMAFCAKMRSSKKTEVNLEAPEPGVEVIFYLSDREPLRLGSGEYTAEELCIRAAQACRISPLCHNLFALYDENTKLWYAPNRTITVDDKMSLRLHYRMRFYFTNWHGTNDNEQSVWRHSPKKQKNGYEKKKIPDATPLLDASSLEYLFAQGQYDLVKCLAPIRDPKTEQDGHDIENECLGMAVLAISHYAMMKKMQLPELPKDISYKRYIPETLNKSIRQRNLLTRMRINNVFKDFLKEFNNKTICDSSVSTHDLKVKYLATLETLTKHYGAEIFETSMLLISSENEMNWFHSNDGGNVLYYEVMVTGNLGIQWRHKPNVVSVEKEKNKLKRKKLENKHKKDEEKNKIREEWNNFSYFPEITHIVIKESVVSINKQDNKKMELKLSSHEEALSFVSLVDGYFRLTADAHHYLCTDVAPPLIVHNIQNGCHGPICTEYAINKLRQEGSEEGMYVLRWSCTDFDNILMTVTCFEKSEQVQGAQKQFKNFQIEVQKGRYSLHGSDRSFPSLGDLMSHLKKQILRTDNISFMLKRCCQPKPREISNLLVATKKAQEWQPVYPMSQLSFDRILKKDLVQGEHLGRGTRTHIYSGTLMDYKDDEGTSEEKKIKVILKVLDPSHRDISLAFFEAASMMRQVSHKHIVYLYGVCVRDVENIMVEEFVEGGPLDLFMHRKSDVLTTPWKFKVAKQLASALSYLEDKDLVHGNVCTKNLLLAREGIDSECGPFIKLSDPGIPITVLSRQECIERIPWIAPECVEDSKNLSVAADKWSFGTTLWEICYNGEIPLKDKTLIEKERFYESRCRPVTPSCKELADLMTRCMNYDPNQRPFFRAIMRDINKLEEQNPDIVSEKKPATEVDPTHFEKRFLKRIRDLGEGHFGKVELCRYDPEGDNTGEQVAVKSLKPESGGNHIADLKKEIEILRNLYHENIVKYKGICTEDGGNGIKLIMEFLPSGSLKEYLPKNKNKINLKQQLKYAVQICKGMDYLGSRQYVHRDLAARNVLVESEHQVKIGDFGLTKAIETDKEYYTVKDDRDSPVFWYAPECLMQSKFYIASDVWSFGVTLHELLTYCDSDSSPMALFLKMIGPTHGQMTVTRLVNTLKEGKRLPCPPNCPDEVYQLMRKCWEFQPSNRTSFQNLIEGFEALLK
Procedure: (§1) Assay 1: Biochemical JAK and Off-Target Kinase Assays
(§2) A panel of four LanthaScreen JAK biochemical assays (JAK1, 2, 3 and Tyk2) were carried in a common kinase reaction buffer (50 mM HEPES, pH 7.5, 0.01% Brij-35, 10 mM MgCl2, and 1 mM EGTA). Recombinant GST-tagged JAK enzymes and a GFP-tagged STAT1 peptide substrate were obtained from Life Technologies.
(§3) Serially diluted compounds were pre-incubated with each of the four JAK enzymes and the substrate in white 384-well microplates (Corning) at ambient temperature for 1 h. ATP was subsequently added to initiate the kinase reactions in 10 μL total volume, with 1% DMSO. […] Kinase reactions were allowed to proceed for 1 hour at ambient temperature before a 10 μL preparation of EDTA (10 mM final concentration) and Tb-anti-pSTAT1 (pTyr701) antibody (Life Technologies, 2 nM final concentration) in TR-FRET dilution buffer (Life Technologies) was added. The plates were allowed to incubate at ambient temperature for 1 h before being read on the EnVision reader (Perkin Elmer).
(§4) Results were expressed as pIC50 (negative logarithm of IC50) and subsequently converted to pKi (negative logarithm of dissociation constant, Ki) using the Cheng-Prusoff equation.

[6] = molecular target: JAK2 (Homo sapiens (Human), UniProt O60674); assay type: biochemical
JAK2, sequence (O60674 whole entry): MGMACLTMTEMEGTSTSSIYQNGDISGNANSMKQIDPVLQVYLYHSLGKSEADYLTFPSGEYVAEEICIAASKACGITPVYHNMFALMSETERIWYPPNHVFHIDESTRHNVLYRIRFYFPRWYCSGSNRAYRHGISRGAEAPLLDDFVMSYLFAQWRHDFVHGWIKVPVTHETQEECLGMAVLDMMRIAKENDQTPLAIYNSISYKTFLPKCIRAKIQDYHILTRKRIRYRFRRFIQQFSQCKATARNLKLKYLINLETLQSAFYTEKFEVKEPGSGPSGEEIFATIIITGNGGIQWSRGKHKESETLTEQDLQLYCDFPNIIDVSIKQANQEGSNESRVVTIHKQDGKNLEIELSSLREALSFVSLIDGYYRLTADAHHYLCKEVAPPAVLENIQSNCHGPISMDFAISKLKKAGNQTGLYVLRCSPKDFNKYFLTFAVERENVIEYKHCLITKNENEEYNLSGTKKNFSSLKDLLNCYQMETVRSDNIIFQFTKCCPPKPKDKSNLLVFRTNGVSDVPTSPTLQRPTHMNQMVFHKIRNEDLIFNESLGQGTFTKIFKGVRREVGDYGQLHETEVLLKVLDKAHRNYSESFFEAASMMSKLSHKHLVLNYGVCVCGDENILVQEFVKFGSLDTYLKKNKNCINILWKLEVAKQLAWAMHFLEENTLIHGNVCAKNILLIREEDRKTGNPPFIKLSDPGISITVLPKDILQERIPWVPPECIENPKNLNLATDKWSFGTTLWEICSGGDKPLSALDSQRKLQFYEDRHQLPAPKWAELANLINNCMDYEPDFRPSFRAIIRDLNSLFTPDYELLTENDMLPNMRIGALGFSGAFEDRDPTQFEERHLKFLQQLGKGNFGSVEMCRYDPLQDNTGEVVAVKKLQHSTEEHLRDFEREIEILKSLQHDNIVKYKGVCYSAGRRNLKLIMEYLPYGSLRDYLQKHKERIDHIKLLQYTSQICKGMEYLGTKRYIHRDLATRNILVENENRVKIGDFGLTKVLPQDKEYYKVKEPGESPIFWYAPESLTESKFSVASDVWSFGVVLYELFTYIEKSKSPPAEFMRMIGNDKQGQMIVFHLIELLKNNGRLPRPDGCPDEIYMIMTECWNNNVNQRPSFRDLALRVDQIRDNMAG
Procedure: as §1, §2, §3, §4

[7] = molecular target: TYK2 (Homo sapiens (Human), UniProt P29597); assay type: biochemical
TYK2, sequence (P29597 whole entry): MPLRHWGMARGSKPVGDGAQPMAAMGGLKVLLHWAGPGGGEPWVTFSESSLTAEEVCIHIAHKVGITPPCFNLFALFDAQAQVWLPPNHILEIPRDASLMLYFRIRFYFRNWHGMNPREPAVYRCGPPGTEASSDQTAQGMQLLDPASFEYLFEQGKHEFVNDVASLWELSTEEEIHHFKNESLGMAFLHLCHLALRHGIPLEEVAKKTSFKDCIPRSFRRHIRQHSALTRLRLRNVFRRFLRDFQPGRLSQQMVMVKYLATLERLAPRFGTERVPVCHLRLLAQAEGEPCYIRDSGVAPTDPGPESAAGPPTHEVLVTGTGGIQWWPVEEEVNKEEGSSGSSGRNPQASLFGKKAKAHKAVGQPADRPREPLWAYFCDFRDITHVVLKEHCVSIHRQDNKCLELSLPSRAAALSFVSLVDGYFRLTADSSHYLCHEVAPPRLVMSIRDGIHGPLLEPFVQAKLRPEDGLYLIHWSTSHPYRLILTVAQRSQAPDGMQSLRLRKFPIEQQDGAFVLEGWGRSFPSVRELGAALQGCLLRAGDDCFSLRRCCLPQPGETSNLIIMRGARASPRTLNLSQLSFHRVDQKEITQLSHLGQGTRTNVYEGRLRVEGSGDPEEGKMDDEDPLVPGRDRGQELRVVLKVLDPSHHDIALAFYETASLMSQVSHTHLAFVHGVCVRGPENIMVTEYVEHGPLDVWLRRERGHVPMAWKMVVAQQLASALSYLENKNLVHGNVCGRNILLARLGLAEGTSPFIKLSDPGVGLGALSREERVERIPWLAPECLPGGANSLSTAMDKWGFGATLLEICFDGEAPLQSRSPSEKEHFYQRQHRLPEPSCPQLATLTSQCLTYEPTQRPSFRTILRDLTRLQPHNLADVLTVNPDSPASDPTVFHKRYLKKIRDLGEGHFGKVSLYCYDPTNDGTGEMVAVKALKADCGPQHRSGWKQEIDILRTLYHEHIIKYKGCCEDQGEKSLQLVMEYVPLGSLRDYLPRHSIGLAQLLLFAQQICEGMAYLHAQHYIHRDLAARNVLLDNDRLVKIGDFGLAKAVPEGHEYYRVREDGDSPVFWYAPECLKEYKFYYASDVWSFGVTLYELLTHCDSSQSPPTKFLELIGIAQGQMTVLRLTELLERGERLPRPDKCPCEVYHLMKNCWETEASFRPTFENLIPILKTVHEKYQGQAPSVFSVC
Procedure: as §1, §2, §3, §4

[8] = tested on: IL-4 induced STAT6 phosphorylation in THP-1 human monocytic cells; settings: THP-1 cells
[9] = tested on: IL-13 induced STAT6 phosphorylation in BEAS-2B human lung epithelial cells; settings: BEAS-2B cells
[10] = molecular target: JAK3 (Homo sapiens (Human), UniProt P52333); assay: Biochemical JAK assay (LanthaScreen), JAK3
JAK3, sequence (P52333 whole entry): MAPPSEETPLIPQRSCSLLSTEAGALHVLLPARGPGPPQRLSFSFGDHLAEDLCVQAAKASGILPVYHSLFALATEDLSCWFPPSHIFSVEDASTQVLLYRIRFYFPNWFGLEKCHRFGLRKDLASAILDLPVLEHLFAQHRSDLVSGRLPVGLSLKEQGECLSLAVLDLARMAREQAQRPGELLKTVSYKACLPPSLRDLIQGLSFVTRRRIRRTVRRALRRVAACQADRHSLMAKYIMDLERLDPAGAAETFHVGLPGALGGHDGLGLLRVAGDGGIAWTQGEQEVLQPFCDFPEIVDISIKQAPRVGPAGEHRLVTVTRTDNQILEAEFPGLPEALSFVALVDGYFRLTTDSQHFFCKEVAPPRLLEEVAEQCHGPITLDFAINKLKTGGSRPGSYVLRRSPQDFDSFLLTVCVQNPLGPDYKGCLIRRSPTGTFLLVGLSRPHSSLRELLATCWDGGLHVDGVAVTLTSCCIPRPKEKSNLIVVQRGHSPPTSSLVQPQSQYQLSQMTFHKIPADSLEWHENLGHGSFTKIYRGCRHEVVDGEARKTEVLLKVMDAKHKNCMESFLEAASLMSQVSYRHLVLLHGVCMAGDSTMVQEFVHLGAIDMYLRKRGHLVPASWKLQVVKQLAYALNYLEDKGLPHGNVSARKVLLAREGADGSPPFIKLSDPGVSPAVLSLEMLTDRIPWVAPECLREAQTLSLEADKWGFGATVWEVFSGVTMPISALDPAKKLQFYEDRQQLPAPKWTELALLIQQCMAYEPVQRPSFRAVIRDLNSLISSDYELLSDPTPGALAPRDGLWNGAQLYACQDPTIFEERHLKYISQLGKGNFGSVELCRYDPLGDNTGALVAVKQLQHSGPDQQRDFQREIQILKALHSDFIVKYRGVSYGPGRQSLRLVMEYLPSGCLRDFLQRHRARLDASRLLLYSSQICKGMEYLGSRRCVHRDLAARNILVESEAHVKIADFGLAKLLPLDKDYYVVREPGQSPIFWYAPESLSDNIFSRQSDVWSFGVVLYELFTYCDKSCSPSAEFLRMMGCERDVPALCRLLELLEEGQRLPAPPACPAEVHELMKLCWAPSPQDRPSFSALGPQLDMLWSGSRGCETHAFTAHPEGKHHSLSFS
Procedure: as §1, §2
Serially diluted compounds were pre-incubated with each of the four JAK enzymes and the substrate in white 384-well microplates (Corning) at ambient temperature for 1 h. ATP was subsequently added to initiate the kinase reactions in 10 μL total volume, with 1% DMSO. […] The plates were allowed to incubate at ambient temperature for 1 h before being read on the EnVision reader (Perkin Elmer).
as §4

[11] = 5% to 90% relative humidity, room temperature; listed as Crystalline 3-(1R,3s,5S)-3-((7-((5-methyl-1H-pyrazol-3-yl)amino)-1,6-naphthyrid))
Procedure: A weighed sample was used and the humidity was lowest possible value (close to 0% RH) at the start of the analysis. The DMS analysis consisted of an initial drying step (0% RH) for 120 minutes, followed by two cycles of sorption and desorption with a scan rate of 5% RH/step over the humidity range of 5% RH to 90% RH. The DMS run was performed isothermally at 25° C.

Structure (SMILES): Cc1cc(Nc2cc3ncccc3c(N[C@@H]3C[C@H]4CC[C@@H](C3)N4CCC#N)n2)n[nH]1 [Example 1, 3-((1R,3s,5S)-3-((7-((5-methyl-1H-pyrazol-3-yl)amino)-1,6-naphthyridin-5-yl)amino)-8-azabicyclo[3.2.1]octan-8-yl)propanenitrile]
- exposure throughout the gastrointestinal tract vs exposure in plasma [1]: significantly higher exposure
- activity in the oxazolone-induced colitis model [2]: demonstrated activity
- decrease in DAI score as compared with vehicle treated animals ([2]; PO, 1, 3, and/or 10 mg/kg BID (doses up to 10 mg/kg BID)): statistically significant decrease
- splenic NK cell counts ([3]; PO BID doses up to 100 mg/kg): unaffected
- treatment effect on B and T cell populations ([3]; PO BID): No treatment effect
- oral bioavailability [4]: very low

Structure (SMILES): Cc1cc(Nc2cc3ncccc3c(N[C@@H]3C[C@H]4CC[C@@H](C3)N4C(=O)C3(C#N)CC3)n2)n[nH]1 [Example 2-8]
- JAK 1 (pKi) [5]: B (B represents a pKi value between 9 and 10 (Ki between 1 nM and 0.1 nM))
- JAK 2 (pKi) [6]: B (B represents a pKi value between 9 and 10 (Ki between 1 nM and 0.1 nM))
- Tyk 2 (pKi) [7]: C (C represents a pKi value between 7 and 9 (Ki between 100 nM and 1 nM))
- THP-1 IL4 pIC50 [8]: B (B represents a pEC50 value between 6.7 and 7.5 (EC50 between 200 nM and 32 nM))

Structure (SMILES): Cc1cc(Nc2cc3ncccc3c(N[C@@H]3C[C@H]4CCC[C@@H](C3)N4C(=O)C3(C#N)CC3)n2)n[nH]1 [Example 2-20]
- JAK 1 (pKi) [5]: B (B represents a pKi value between 9 and 10 (Ki between 1 nM and 0.1 nM))
- JAK 2 (pKi) [6]: B (B represents a pKi value between 9 and 10 (Ki between 1 nM and 0.1 nM))
- Tyk 2 (pKi) [7]: C (C represents a pKi value between 7 and 9 (Ki between 100 nM and 1 nM))
- BEAS2B pIC50 [9]: A (A represents a pEC50 value ≥7.5 (EC50≤32 nM))
- THP-1 IL4 pIC50 [8]: A (A represents a pEC50 value ≥7.5 (EC50≤32 nM))

Structure (SMILES): COCC1CCCN1S(=O)(=O)N1[C@@H]2CCC[C@H]1C[C@H](Nc1nc(Nc3cc(C)[nH]n3)cc3ncccc13)C2 (some centres unmarked) [Example 4-28]
- JAK 2 (pKi) [6]: B (B represents a pKi value between 9 and 10 (Ki between 1 nM and 0.1 nM))
- Tyk 2 (pKi) [7]: B (B represents a pKi value between 9 and 10 (Ki between 1 nM and 0.1 nM))
- JAK 3 (pKi) [10]: C (C represents a pKi value between 7 and 9 (Ki between 100 nM and 1 nM))
- THP-1 IL4 pIC50 [8]: A (A represents a pEC50 value ≥7.5 (EC50≤32 nM))

Structure (SMILES): Cc1cc(Nc2cc3ncccc3c(N[C@@H]3C[C@H]4CC[C@@H](C3)N4CCC#N)n2)n[nH]1 [Form I, 3-((1R,3s,5S)-3-((7-((5-methyl-1H-pyrazol-3-yl)amino)-1,6-naphthyridin-5-yl)amino)-8-azabicyclo[3.2.1]octan-8-yl)propanenitrile]
- weight gain / weight change on exposure to humidity [11]: less than 0.15%
